Results taken from US20120302573A1, “METHODS OF INHIBITING PRO MATRIX METALLOPROTEINASE ACTIVATION” (priority 2011, published 2012).
Where a name gives a salt, the structure may show the parent alone.

Columns and labels:
human catalytic MMP9 = target: T1, human catalytic MMP9 (Homo sapiens, UniProt P14780); test: Catalytic MMP9 enzyme assay (fluorogenic peptide P-126); assay type: biochemical
T1 construct: purchased BioMol SE-244
Method: The assay buffer employed was 50 mM Hepes, pH 7.5, 10 mM CaCl2, 0.05% Brij-35. DMSO was included at a final concentration of 2%, arising from the test compound addition. The reaction volume was 100 μL. […] Initial velocities were plotted by use of a four-parameter logistics equation (GraphPad Prism® software) for determination of IC50, if required.

[1] = target: T2, human catalytic MMP3, MMP3(100-265) (Homo sapiens, UniProt P08254); test: Catalytic MMP3 enzyme assay (fluorogenic peptide M2110); assay type: biochemical
T2 construct: Catalytic MMP3 was amino acids 100-265 of human MMP3 from UniProtKB/Swiss-Prot P08254; 6x-Histidine tag (C); made in house; host or cells: E. coli
T2 sequence (P08254 with tags, fused parts or gaps): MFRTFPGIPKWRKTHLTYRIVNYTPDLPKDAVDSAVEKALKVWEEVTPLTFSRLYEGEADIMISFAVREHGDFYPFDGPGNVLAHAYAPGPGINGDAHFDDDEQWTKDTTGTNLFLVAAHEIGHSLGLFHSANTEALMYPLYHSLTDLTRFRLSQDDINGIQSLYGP
Method: Compounds were assessed for inhibition of human catalytic MMP3, MMP3(100-265) (SEQ ID NO:8), using a peptide (Mca-RPKPVE-Nva-WRK(Dnp)-NH2, Bachem M2110) that fluoresces upon cleavage by catalytic MMP3. […] The reaction volume was 100 μL. […] Final concentrations employed were 20 nM catalytic MMP3 and 20 μM M2110 substrate.

[2] = target: T3, proMMP9(20-445;ΔFnII) (SEQ ID NO:6) (Homo sapiens, UniProt P14780, DEL216-390); test: ThermoFluor binding assay with proMMP9(20-445;ΔFnII)
T3 construct: amino acid pairs including: 29-215/391-444, 67-215/391-444, and 20-215/391-445, respectively; start methionine (N); made in house; host or cells: E. coli BL21(DE3) RIL
T3 sequence (P14780 with tags, fused parts or gaps DEL216-390): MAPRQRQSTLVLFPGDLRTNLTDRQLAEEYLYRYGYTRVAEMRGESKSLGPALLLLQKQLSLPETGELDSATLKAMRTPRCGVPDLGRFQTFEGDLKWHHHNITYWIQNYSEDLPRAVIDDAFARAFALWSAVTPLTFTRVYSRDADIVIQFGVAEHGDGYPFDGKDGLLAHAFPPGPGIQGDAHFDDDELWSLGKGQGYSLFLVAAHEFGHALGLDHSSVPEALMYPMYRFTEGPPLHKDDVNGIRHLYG
In short: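 Thermal shift with 1,8-ANS dye, heating from 40 to 90 °C at 1 °C/min. Fluorescence excited at 380–400 nm and read at 500±25 nm. Protein was buffer-exchanged by desalting, and binding fitted using heat capacity and thermodynamic parameters from DSC and ThermoFluor dosing data, with DMSO reference wells.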

[3] = target: T4, proMMP9(67-444;ΔFnII) (SEQ ID NO:5) (Homo sapiens, UniProt P14780, DEL216-390); test: ThermoFluor binding assay with proMMP9(67-444;ΔFnII)
T4 construct: amino acid pairs including: 29-215/391-444, 67-215/391-444, and 20-215/391-445, respectively; start methionine (N); made in house; host or cells: E. coli BL21(DE3) RIL
T4 sequence (P14780 with tags, fused parts or gaps DEL216-390): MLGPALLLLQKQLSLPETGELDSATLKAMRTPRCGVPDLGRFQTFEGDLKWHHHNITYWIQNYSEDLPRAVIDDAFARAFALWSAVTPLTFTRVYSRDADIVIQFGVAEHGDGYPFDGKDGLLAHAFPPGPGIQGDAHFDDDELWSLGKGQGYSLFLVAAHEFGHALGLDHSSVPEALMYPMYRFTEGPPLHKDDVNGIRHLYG
In short: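 Thermal shift (ThermoFluor) with 1,8-ANS dye; protein desalted by buffer exchange before use. Samples heated 40 to 90 °C at 1 °C/min, excitation 380-400 nm, emission 500±25 nm. Binding fitted using unfolding thermodynamic parameters from DSC and ThermoFluor dosing data.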

[4] = target: T5, full-length proMMP9(1-707) activation by catalytic MMP3 (Homo sapiens, UniProt P14780, R574P); test: proMMP9/MMP3 P126 Activation Assay; assay type: biochemical; parameters: made in house; host or cells: E. coli (MMP3); details: proMMP9 from HEK293 cells
T5 sequence (P14780 20-707 R574P): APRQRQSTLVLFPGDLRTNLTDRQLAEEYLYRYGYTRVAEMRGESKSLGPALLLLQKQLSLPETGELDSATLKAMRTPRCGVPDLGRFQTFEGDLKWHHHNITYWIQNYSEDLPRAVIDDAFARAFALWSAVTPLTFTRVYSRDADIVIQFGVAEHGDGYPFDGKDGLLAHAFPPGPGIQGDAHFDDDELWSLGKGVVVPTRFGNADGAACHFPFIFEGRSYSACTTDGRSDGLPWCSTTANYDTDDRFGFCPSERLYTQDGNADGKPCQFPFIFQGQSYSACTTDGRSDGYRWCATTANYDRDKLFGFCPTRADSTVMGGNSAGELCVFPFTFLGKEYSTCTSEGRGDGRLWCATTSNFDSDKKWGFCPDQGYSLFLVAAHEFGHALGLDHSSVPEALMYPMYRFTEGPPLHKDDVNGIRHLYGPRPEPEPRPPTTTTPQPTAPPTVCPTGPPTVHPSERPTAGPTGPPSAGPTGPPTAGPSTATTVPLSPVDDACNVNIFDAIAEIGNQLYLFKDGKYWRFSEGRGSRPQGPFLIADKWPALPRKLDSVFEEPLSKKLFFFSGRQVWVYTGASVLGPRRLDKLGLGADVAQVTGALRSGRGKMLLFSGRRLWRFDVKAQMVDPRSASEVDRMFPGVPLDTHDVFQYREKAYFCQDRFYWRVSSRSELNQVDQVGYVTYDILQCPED
Method: The assay buffer employed was 50 mM Hepes, pH 7.5, 10 mM CaCl2, 0.05% Brij-35. DMSO was included at a final concentration of 2%, arising from the test compound addition. […] The reaction volume was 50 μL. […] Initial velocities were plotted by use of a four-parameter logistics equation (GraphPad Prism® software) for determination of IC50.

[5] = target: T5, full-length proMMP9(1-707) activation by catalytic MMP3; test: ProMMP9/MMP3 DQ Gelatin Activation Assay;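 also: readout is fluorescence of quenched fluorescein gelatin cut by activated MMP9, 30 min activation at 37 °C, inhibition relative to DMSO-only controls with EDTA as blank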; assay type: biochemical; parameters: made in house; host or cells: COS-1 (proMMP9); E. coli (MMP3); details: proMMP9 from COS-1 cells; read-out: ProMMP9/MMP3 DQ gel, IC50
Method: Compounds were assessed for inhibition of proMMP9 activation by catalytic MMP3 using a quenched fluorescein gelatin substrate (DQ gelatin, Invitrogen D12054) that fluoresces upon cleavage by activated MMP9. The assay buffer employed was 50 mM Hepes, pH 7.5, 10 mM CaCl2, 0.05% Brij-35. DMSO was included at a final concentration of 0.2%, arising from the test compound addition. […] Test compounds in DMSO were diluted 250-fold in assay buffer at 4× the final concentration. The reaction volume was 12 μL, and all reactions were conducted in triplicate. […] The plate was sealed and incubated for 30 min at 37° C. […] Immediately following the 30 min incubation, 4 μL of 40 μg/ml DQ gelatin substrate was added (freshly diluted in assay buffer), and incubated for 10 min at room temperature. […] Reactivity of residual MMP3 towards DQ gelatin was minimal under these conditions. Percent inhibition of test compounds were determined from suitable positive (DMSO only in assay buffer) and negative (EDTA added prior to reaction initiation) controls. Plots of % inhibition vs. test compound concentration were fit to a four-parameter logistics equation (GraphPad Prism® software) for determination of IC50.

[6] = target: T6, proMMP13(1-268) (SEQ ID NO:7) (Homo sapiens, UniProt P45452); test: ThermoFluor binding assay with proMMP13(1-268)
T6 construct: 6x-histidine tag (C); made in house; host or cells: HEK293
Method: The ThermoFluor® (TF) assay is a 384-well plate-based binding assay that measures thermal stability of proteins (Biomol Screen 2001, 6, 429-40; Biochemistry 2005, 44, 5258-66). The experiments were carried out using instruments available from Johnson & Johnson Pharmaceutical Research & Development, LLC. TF dye used in all experiments was […] (1,8-ANS) (Invitrogen: A-47).
Compounds were arranged in a pre-dispensed plate (Greiner Bio-one: 781280), wherein compounds were serially diluted in 100% DMSO across 11 columns within a series. Columns 12 and 24 were used as DMSO reference and contained no compound. For multiple compound concentration-response experiments, the compound aliquots ([…]) were robotically predispensed directly into black 384-well polypropylene PCR microplates (Abgene: TF-0384/k) using a Cartesian Hummingbird liquid handler (DigiLab, Holliston, Mass.). Following compound dispense, protein and dye solutions were added to achieve the final assay volume of 3 μL. The assay solutions were overlayed with 1 μL of silicone oil (Fluka, type DC 200: 85411) to prevent evaporation.
Assay plates were robotically loaded onto a thermostatically controlled PCR-type thermal block and then heated from 40 to 90° C. at a ramp-rate of 1° C./min for all experiments. Fluorescence was measured by continuous illumination with UV light (Hamamatsu LC6) supplied via fiber optics and filtered through a band-pass filter (380-400 nm; >6 OD cutoff). Fluorescence emission of the entire 384-well plate was detected by measuring light intensity using a CCD camera (Sensys, Roper Scientific) filtered to detect 500±25 nm, resulting in simultaneous and independent readings of all 384 wells. A single image with 20-sec exposure time was collected at each temperature, and the sum of the pixel intensity in a given area of the assay plate was recorded vs temperature and fit to standard equations to yield the Tm (J Biomol Screen 2001, 6, 429-40).
Thermodynamic parameters necessary for fitting compound binding for each proMMP were estimated by differential scanning calorimetry (DSC) and from ThermoFluor® data. The heat capacity of unfolding for each protein was estimated from the molecular weight and from ThermoFluor® dosing data.
The proMMP13(1-268) (SEQ ID NO:7) protein sample preparations included a desalting buffer exchange step via a PD-10 gravity column (GE Healthcare). The desalting buffer exchange was performed prior to diluting the protein to the final assay concentration of 3.5 μM. The concentration of proMMP13(1-268) (SEQ ID NO:7) was estimated spectrophotometrically based on a calculated extinction coefficient of ε280=37000 M^−1 cm^−1, a calculated molecular weight of 30.8 kDa, and calculated pI of 5.33. ThermoFluor® reference conditions were defined as follows: 100 μg/mL proMMP13(1-268) (SEQ ID NO:7), 25 μM 1,8-ANS, pH 7.0 Buffer (50 mM HEPES pH 7.0, 100 mM NaCl, 0.001% Tween-20, 2.5 mM MgCl2, 300 μM CaCl2). The thermodynamic parameters for proMMP13(1-268) (SEQ ID NO:7) are as follows: Tm (° C.)=67 (+/−0.1), ΔUH(Tm) (cal mol^−1)=107000(+/−5000), ΔUS(Tm) (cal mol^−1 K^−1)=318, ΔUCp (cal mol^−1 K^−1)=2600.

T1 sequence (P14780 107-445 limits assumed): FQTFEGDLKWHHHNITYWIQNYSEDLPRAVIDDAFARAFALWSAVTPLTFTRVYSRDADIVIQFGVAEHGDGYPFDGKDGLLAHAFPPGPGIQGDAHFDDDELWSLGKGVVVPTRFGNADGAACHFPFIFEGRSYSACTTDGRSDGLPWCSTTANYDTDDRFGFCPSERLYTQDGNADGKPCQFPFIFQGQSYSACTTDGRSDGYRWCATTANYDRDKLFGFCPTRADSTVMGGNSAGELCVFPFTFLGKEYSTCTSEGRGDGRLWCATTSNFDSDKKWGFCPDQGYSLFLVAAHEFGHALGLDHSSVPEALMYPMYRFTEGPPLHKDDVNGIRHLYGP

Row | SMILES | IC50 (human catalytic MMP9) [µM] | IC50 [1] [µM] | Kd [2] [µM] | Kd [3] [µM] | IC50 [4] [µM] | IC50 [5] [µM] | Kd [6] [µM]
1 | COc1ccc(Cl)cc1Nc1nc(-c2sc(N)nc2C)cs1 [Example 67, N^2-(5-Chloro-2-methoxy-phenyl)-4′-methyl-[4,5′]bithiazolyl-2,2′-diamine] | > 50 | > 50 | 2.43 | 0.318 | 2.1 |  | 
2 | COc1ccc(Cl)cc1Nc1nc(-c2sc(NC(C)=O)nc2C)cs1 [Example 59, N-[2-(5-Chloro-2-methoxy-phenylamino)-4′-methyl-[4,5′]bithiazolyl-2′-yl]-acetamide] | > 50 | > 50 | 29.2 | 0.583 | 0.52 | 0.34 | 
3 | COc1ccccc1Nc1nc(-c2sc(C)cc2C)cs1 [Example 45, [4-(3,5-Dimethyl-thiophen-2-yl)-thiazol-2-yl]-(2-methoxy-phenyl)-amine.TFA] |  |  | 1.65 | 10 | > 50 | > 20 | > 95
4 | COc1ccccc1Nc1nc(-c2sc(NC(C)=O)nc2C)cs1 [Example 65, N-[2-(2-Methoxy-phenylamino)-4′-methyl-[4,5′]bithiazolyl-2′-yl]-acetamide] |  | > 50 |  |  |  |  | 37.5
5 | COc1ccccc1Nc1nc(-c2sc(NS(C)(=O)=O)nc2C)cs1 [Example 34, N-[2-(2-Methoxy-phenylamino)-4′-methyl-[4,5′]bithiazolyl-2′-yl]-methanesulfonamide] |  |  | 3.64 | 0.82 | 4 | 2.3 | 43.5
6 | CC(=O)Nc1nc(C)c(-c2csc(Nc3ccccc3OC(C)C)n2)s1 [Example 1, N-[2-(2-Isopropoxy-phenylamino)-4′-methyl-[4,5′]bithiazolyl-2′-yl]-acetamide] |  |  | 8.68 | 1.29 | 2.5 |  | 14.1
7 | COc1ccc(F)cc1Nc1nc(-c2sc(NC(C)=O)nc2C)cs1 [Example 6] |  |  | 0.907 | 0.156 | 0.65 |  | 15.1
8 | COc1ccc(F)cc1Nc1nc(-c2sc(N)nc2C)cs1 [Example 4, N^2-(5-Fluoro-2-methoxy-phenyl)-4′-methyl-[4,5′]bithiazolyl-2,2′-diamine.HBr] | > 50 | > 50 | 1.7 | 0.254 | 1.5 |  | 
9 | COc1ccc(F)cc1Nc1nc(-c2cccnc2)cs1 [Example 16, (5-Fluoro-2-methoxy-phenyl)-(4-pyridin-3-yl-thiazol-2-yl)-amine.HBr] |  |  | > 95 | 8.9 | 3.6 |  | > 95
10 | Brc1ccc(Nc2nc(-c3cccnc3)cs2)cn1 [Example 70, (6-Bromo-pyridin-3-yl)-(4-pyridin-3-yl-thiazol-2-yl)-amine] |  |  | 5.79 | 12 | > 20 |  | 0.668
11 | COc1ccc(Br)cc1Nc1nc(-c2sc(NC(C)=O)nc2C)cs1 [Example 21, N-[2-(5-Bromo-2-methoxy-phenylamino)-4′-methyl-[4,5′]bithiazolyl-2′-yl]-acetamide.HBr] |  |  | 4.48 | 0.14 | 2.8 |  | 3.57
12 | COc1ccccc1Nc1nc(-c2sc(N)nc2C)cs1 [Example 68, N^2-(2-Methoxy-phenyl)-4′-methyl-[4,5′]bithiazolyl-2,2′-diamine] |  |  | 3.76 | 1.12 | 2.5 | 3.1 | 14.5
13 | Cc1nc(C)c(-c2csc(Nc3cc(F)ccc3OC(C)C)n2)s1 [Example 13, (2′,4′-Dimethyl-[4,5′]bithiazolyl-2-yl)-(5-fluoro-2-isopropoxy-phenyl)-amine] |  |  | > 95 | > 95 | ~2 |  | > 95
